Results from PMC7822874, “Chemoprotective antimalarials identified through quantitative high-throughput screening of Plasmodium blood and liver stage parasites” (Scientific Reports, 2021).
Values joined by “and” are separate entries in the source; they are usually repeats but may differ in a detail not shown here. Equal entries are not always repeated.

Legend:
[1] = tested on: T1, Plasmodium falciparum Dd2-attB (parental line), asexual blood stages; assay: microbe, parasite or virus in culture; parameters: replicate k of 3 (each line is one of three independent assays; the three lines of one compound and parasite line follow each other); details: n = 1; for Individual replicates / Log AC50 (M): 72 h; for AC50: Plasmodium falciparum, DD2, 72 h, read-out: Individual replicates / Log AC50 (converted)
T1 construct: Dd2-attB, the isogenic parental line
Outline: (§1)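 Both lines were tested side by side with selected compounds, repeated in three independent assays. Differences between parental and ScDHODH-expressing parasites were then assessed with a two-sided Student's t-test.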

[2] = tested on: T2, Plasmodium falciparum Dd2-attB-ScDHODH (transgenic line expressing yeast DHODH), asexual blood stages; assay: organism not typed; parameters: replicate k of 3 (each line is one of three independent assays; the three lines of one compound and parasite line follow each other)
T2 construct: Dd2-attB-ScDHODH, the transgenic line that expresses yeast DHODH
Outline: as §1

[3] = 72 h; n = 1; read-out: Individual replicates / Log AC50 (converted)

| Structure (SMILES) | Individual replicates / Log AC50 (M) [1] | AC50 [1] | Individual replicates / Log AC50 (M) ([2]; 72 h, n = 1) | AC50 [2, 3] | Individual replicates / Log AC50 (M) ([2]; 72 h; n = 1) |
| --- | --- | --- | --- | --- | --- |
| COC(=O)c1ccnc2cc(C(OCCC3CCCCC3)c3ccccc3Cl)[nH]c12 (stereo not drawn) [NCGC00421833-01] | -4.7986 Log AC50 (M) and -4.7486 Log AC50 (M) | 15.9 µM | -4.7486 Log AC50 (M) and -4.7986 Log AC50 (M) | 17.8 µM | – |
| O=C(O)c1ccnc2cc(C(OCCN3CCOCC3)c3ccccc3Cl)[nH]c12 (stereo not drawn) [NCGC00421890-01] | -5.1986 Log AC50 (M) | 5.64 µM | -5.3986 Log AC50 (M) and -5.2486 Log AC50 (M) | 5.03 µM | – |
| COc1ccc(-c2c(-c3cc(N)ccn3)ncn2C)cc1 [NCGC00421914-01] | -4.7986 Log AC50 (M) and -4.9486 Log AC50 (M) | 14.2 µM | -4.9986 Log AC50 (M) | 12.6 µM | – |
| O=C(O)c1ccnc2cc(C(OCCCN3CCCCC3)c3ccccc3Cl)[nH]c12 (stereo not drawn) [NCGC00421948-01] | -4.9486 Log AC50 (M) | 7.97 µM | – | 5.03 µM | – |
| CCOC(=O)C1(Cc2ccc(Cl)cc2)CCN(C(=O)c2cc(C)oc2C)CC1 [NCGC00426139-02] | -5.0986 Log AC50 (M) | 8.94 µM | -4.8986 Log AC50 (M) and -4.7986 Log AC50 (M) | 15.9 µM | – |
| CCCN1C(CC(C)C)=N[S+](=O)([O-])c2cc(NC(=O)c3cccs3)ccc21 [NCGC00473217-02] | -7.0986 Log AC50 (M) and -6.8486 Log AC50 (M) and -6.8986 Log AC50 (M) | – | -6.3986 Log AC50 (M) and -6.0986 Log AC50 (M) and -6.3486 Log AC50 (M) | – | – |
| COC(=O)c1ccnc2cc(C(OCCC3CCCN3C)c3ccccc3Cl)[nH]c12 (stereo not drawn) [NCGC00479019-01] | -5.1986 Log AC50 (M) and -5.1486 Log AC50 (M) | 5.03 µM | -5.2986 Log AC50 (M) and -5.1486 Log AC50 (M) | 7.1 µM | – |
| CC(OCCN1CCCCC1)c1cnn(-c2cc(CO)ccn2)c1-c1cccc(-c2ccccc2)c1 (stereo not drawn) [NCGC00479246-01] | -5.5486 Log AC50 (M) and -5.3986 Log AC50 (M) | 3.56 µM | -5.3486 Log AC50 (M) | 3.56 µM | – |
| COC(=O)c1ccnc2sc(N(CCCN3CCCCC3)c3ccccc3Cl)nc12 [NCGC00480953-01] | -5.2486 Log AC50 (M) and -5.3486 Log AC50 (M) | 4.48 µM | -5.0986 Log AC50 (M) | 4.48 µM | – |
| CN1CCC(CCOC(c2cc3nccc(C(=O)O)c3[nH]2)c2ccccc2Cl)C1 (stereo not drawn) [NCGC00481023-01] | – | 12.6 µM | – | 8.94 µM | – |
| COC(=O)c1ccnc2cc(C(OCCC3CCCN3C)c3ccccc3Cl)sc12 (stereo not drawn) [NCGC00481040-01] | -5.0986 Log AC50 (M) and -4.9486 Log AC50 (M) | 8.94 µM | -4.8486 Log AC50 (M) | 12.6 µM | – |
| CCCCOC(=O)c1ccnc2cc(C(OCCN3CCCCC3)c3ccccc3Cl)sc12 (stereo not drawn) [NCGC00481505-01] | -5.2486 Log AC50 (M) and -5.0986 Log AC50 (M) | 8.94 µM | -5.0486 Log AC50 (M) and -5.1486 Log AC50 (M) | 14.2 µM | – |
| CC(C)OC(=O)c1ccnc2cc(C(OCCN3CCCCC3)c3ccccc3Cl)sc12 (stereo not drawn) [NCGC00481510-01] | -5.1986 Log AC50 (M) | 7.1 µM | -5.0986 Log AC50 (M) | 8.94 µM | – |
| CCOC(=O)c1ccnc2cc(C(OCCN3CCCCC3)c3ccccc3Cl)sc12 (stereo not drawn) [NCGC00481512-01] | -5.1486 Log AC50 (M) | 5.64 µM | -5.1986 Log AC50 (M) and -5.0986 Log AC50 (M) | 7.97 µM | – |
| Cc1ccccc1C(OCCN1CCCCC1)c1cc2nccc(B(O)O)c2s1 (stereo not drawn) [NCGC00481524-01] | -4.8486 Log AC50 (M) and -4.7986 Log AC50 (M) | 14.2 µM | – | 15.9 µM | -4.7986 Log AC50 (M) |
| Cc1ccccc1C(OCCN1CCCCC1)c1cc2nccc(Cl)c2s1 (stereo not drawn) [NCGC00481525-01] | -5.0486 Log AC50 (M) and -4.9986 Log AC50 (M) | 8.94 µM | -5.0486 Log AC50 (M) | 10 µM | – |
| CCCCOC(=O)c1ccnc2cc(C(OCCN3CCCCC3)c3ccccc3C)sc12 (stereo not drawn) [NCGC00481621-01] | -5.0986 Log AC50 (M) and -5.0486 Log AC50 (M) | 8.94 µM | -4.7986 Log AC50 (M) | 14.2 µM | – |
| CCCCOC(=O)c1ccnc2cc(C(=O)N(CCN(C)C)c3ccccc3)sc12 [NCGC00481684-01] | -4.7986 Log AC50 (M) | 17.8 µM | – | 14.2 µM | – |
